From patent US7378435B2, “Aryl-isoxazole-4-carbonyl-indole-carboxylic acid amide derivatives” (Hoffmann-La Roche Inc., priority 2005, dated 2008)
Where two headings read alike, the source gives them in different places.

Target: T1, GABA A receptor α5β3γ2 (Homo sapiens, UniProt P18507+P31644)
T1 construct: expressed in transfected cells; host or cells: HEK293 (transiently transfected for the human receptors)
Test: [3H]flumazenil competition binding, human GABA A α5β3γ2 receptors expressed in HEK293 cells
Description: The affinity of compounds at GABA A receptor subtypes was measured by competition for [3H]flumazenil (85 Ci/mmol; Roche) binding to HEK293 cells expressing rat (stably transfected) or human (transiently transfected) receptors of composition α1β3γ2, α2β3γ2, α3β3γ2 and α5β3γ2.
Cell pellets were suspended in Krebs-tris buffer (4.8 mM KCl, 1.2 mM CaCl2, 1.2 mM MgCl2, 120 mM NaCl, 15 mM Tris; pH 7.5; binding assay buffer), homogenized by polytron for ca. 20 sec on ice and centrifuged for 60 min at 4° C. (50000 g; Sorvall, rotor: SM24=20000 rpm). The cell pellets were resuspended in Krebs-tris buffer and homogenized by polytron for ca. 15 sec on ice. Protein was measured (Bradford method, Bio-Rad) and aliquots of 1 mL were prepared and stored at −80° C.
Radioligand binding assays were carried out in a volume of […] (96-well plates) which contained […] of cell membranes, [3H]flumazenil at a concentration of 1 nM for α1, α2, α3 subunits and 0.5 nM for α5 subunits and the test compound in the range of […]. Nonspecific binding was defined by 10^−5 M diazepam and typically represented less than 5% of the total binding. Assays were incubated to equilibrium for 1 hour at 4° C. and harvested onto GF/C uni-filters (Packard) by filtration using a Packard harvester and washing with ice-cold wash buffer (50 mM Tris; pH 7.5). After drying, filter-retained radioactivity was detected by liquid scintillation counting. Ki values were calculated using Excel-Fit (Microsoft) and are the means of two determinations.

[1] = Table 1, human α5, [3H]flumazenil, mean of two determinations, read-out: Ki h
[2] = human α5β3γ2, 0.5 nM [3H]flumazenil, mean of two determinations, read-out: Ki[μM] hα5

Row | SMILES | Ki [1] [µM] | Ki [2] [µM] | Ki [µM]
1 | Cc1onc(-c2cccc(F)c2)c1C(=O)c1cn(C)c2cc(C(=O)NCC3CC3)ccc12 [Example 43, 3-[3-(3-Fluoro-phenyl)-5-methyl-isoxazole-4-carbonyl]-1-methyl-1H-indole-6-carboxylic acidcyclopropylmethyl-amide] |  |  | 0.0667
2 | Cc1onc(-c2cccc(F)c2)c1C(=O)c1cn(C)c2cc(C(=O)NCCN3CCOCC3)ccc12 [Example 41, 3-[3-(3-Fluoro-phenyl)-5-methyl-isoxazole-4-carbonyl]-1-methyl-1H-indole-6-carboxylic acid(2-morpholin-4-yl-ethyl)-amide] |  |  | 0.0249
3 | Cc1onc(-c2ccc(F)cc2)c1C(=O)c1c[nH]c2cc(C(=O)NCCN3CCOCC3)ccc12 [Example 14, 3-[3-(4-Fluoro-phenyl)-5-methyl-isoxazole-4-carbonyl]-1H-indole-6-carboxylicacid (2-morpholin-4-yl-ethyl)-amide] | 0.00455 | 0.00455 | 
4 | Cc1onc(-c2ccc(F)cc2)c1C(=O)c1c[nH]c2cc(C(=O)NCCc3cnc[nH]3)ccc12 [Example 12, 3-[3-(4-Fluoro-phenyl)-5-methyl-isoxazole-4-carbonyl]-1H-indole-6-carboxylicacid [2-(1H-imidazol-4-yl)-ethyl]-amide] | 0.0026 | 0.0026 | 
5 | Cc1onc(-c2cccc(F)c2)c1C(=O)c1c[nH]c2cc(C(=O)NCCN3CCOCC3)ccc12 [Example 28, 3-[3-(3-Fluoro-phenyl)-5-methyl-isoxazole-4-carbonyl]-1H-indole-6-carboxylicacid (2-morpholin-4-yl-ethyl)-amide] | 0.0227 |  | 
6 | Cc1onc(-c2ccc(F)cc2)c1C(=O)c1c[nH]c2cc(C(=O)NC3CCC3)ccc12 [Example 25, 3-[3-(4-Fluoro-phenyl)-5-methyl-isoxazole-4-carbonyl]-1H-indole-6-carboxylicacidcyclobutylamide] | 0.00675 | 0.00675 | 
7 | Cc1onc(-c2ccc(F)cc2)c1C(=O)c1c[nH]c2cc(C(=O)NCCCN3CCOCC3)ccc12 [Example 17, 3-[3-(4-Fluoro-phenyl)-5-methyl-isoxazole-4-carbonyl]-1H-indole-6-carboxylicacid (3-morpholin-4-yl-propyl)-amide] | 0.0043 | 0.0043 | 
8 | C#CCNC(=O)c1ccc2c(C(=O)c3c(-c4ccccc4)noc3C)c[nH]c2c1 [Example 3, 3-(5-Methyl-3-phenyl-isoxazole-4-carbonyl)-1H-indole-6-carboxylicacid prop-2-ynylamide] | 0.0029 | 0.0029 | 
9 | Cc1onc(-c2cccc(F)c2)c1C(=O)c1c[nH]c2cc(C(=O)NCCc3cnc[nH]3)ccc12 [Example 26, 3-[3-(3-Fluoro-phenyl)-5-methyl-isoxazole-4-carbonyl]-1H-indole-6-carboxylicacid [2-(1H-imidazol-4-yl)-ethyl]-amide] | 0.0235 |  | 
10 | Cc1onc(-c2ccccc2)c1C(=O)c1c[nH]c2cc(C(=O)NCc3ccco3)ccc12 [Example 7, 3-(5-Methyl-3-phenyl-isoxazole-4-carbonyl)-1H-indole-6-carboxylicacid (furan-2-ylmethyl)-amide] | 0.0053 | 0.0053 | 
11 | Cc1onc(-c2ccc(F)cc2)c1C(=O)c1c[nH]c2cc(C(=O)NCC3CC3)ccc12 [Example 1, 3-[3-(4-Fluoro-phenyl)-5-methyl-isoxazole-4-carbonyl]-1H-indole-6-carboxylic acid cyclopropylmethyl-amide] |  | 0.00645 | 
12 | Cc1onc(-c2ccccc2)c1C(=O)c1c[nH]c2cc(C(=O)NCc3ccccn3)ccc12 [Example 5, 3-(5-Methyl-3-phenyl-isoxazole-4-carbonyl)-1H-indole-6-carboxylicacid (pyridin-2-ylmethyl)-amide] | 0.00395 | 0.00395 | 
13 | Cc1onc(-c2ccccc2)c1C(=O)c1c[nH]c2cc(C(=O)NC3CC3)ccc12 [Example 8, 3-(5-Methyl-3-phenyl-isoxazole-4-carbonyl)-1H-indole-6-carboxylicacidcyclopropylamide] | 0.003 | 0.003 | 
14 | Cc1onc(-c2cccc(F)c2)c1C(=O)c1c[nH]c2cc(C(=O)NCc3ccco3)ccc12 [Example 29, 3-[3-(3-Fluoro-phenyl)-5-methyl-isoxazole-4-carbonyl]-1H-indole-6-carboxylicacid (furan-2-ylmethyl)-amide] | 0.0621 |  | 
15 | Cc1onc(-c2ccc(F)cc2)c1C(=O)c1c[nH]c2cc(C(=O)NCc3ccccn3)ccc12 [Example 13, 3-[3-(4-Fluoro-phenyl)-5-methyl-isoxazole-4-carbonyl]-1H-indole-6-carboxylicacid (pyridin-2-ylmethyl)-amide] | 0.00565 | 0.00565 | 
16 | Cc1onc(-c2ccc(F)cc2)c1C(=O)c1c[nH]c2cc(C(=O)NC3CC3)ccc12 [Example 23, 3-[3-(4-Fluoro-phenyl)-5-methyl-isoxazole-4-carbonyl]-1H-indole-6-carboxylicacidcyclopropylamide] | 0.00305 | 0.00305 | 
17 | Cc1onc(-c2ccc(F)cc2)c1C(=O)c1c[nH]c2cc(C(=O)NCc3cccnc3)ccc12 [Example 24, 3-[3-(4-Fluoro-phenyl)-5-methyl-isoxazole-4-carbonyl]-1H-indole-6-carboxylicacid (pyridin-3-ylmethyl)-amide] | 0.00225 | 0.00225 | 
18 | Cc1onc(-c2ccccc2)c1C(=O)c1c[nH]c2cc(C(=O)NCCN3CCOCC3)ccc12 [Example 6, 3-(5-Methyl-3-phenyl-isoxazole-4-carbonyl)-1H-indole-6-carboxylicacid (2-morpholin-4-yl-ethyl)-amide] | 0.0033 | 0.0033 | 
19 | Cc1onc(-c2cccc(F)c2)c1C(=O)c1cn(C)c2cc(C(=O)NC3CCOCC3)ccc12 [Example 45, 3-[3-(3-Fluoro-phenyl)-5-methyl-isoxazole-4-carbonyl]-1-methyl-1H-indole-6-carboxylic acid(tetrahydro-pyrann-4-yl)-amide] |  |  | 0.049
20 | C#CCN(C)C(=O)c1ccc2c(C(=O)c3c(-c4ccc(F)cc4)noc3C)c[nH]c2c1 [Example 19, 3-[3-(4-Fluoro-phenyl)-5-methyl-isoxazole-4-carbonyl]-1H-indole-6-carboxylicacid methyl-prop-2-ynyl-amide] | 0.0606 |  | 

More lines, main results first:

Row | Ki [1] [µM] | Ki [2] [µM] | SMILES | Ki [µM]
21 | 0.0393 |  | CC(C)c1onc(-c2cccc(F)c2)c1C(=O)c1c[nH]c2cc(C(=O)NCC3CC3)ccc12 [Example 37, 3-[3-(3-Fluoro-phenyl)-5-isopropyl-isoxazole-4-carbonyl]-1H-indole-6-carboxylicacidcyclopropylmethyl-amide] | 
22 | 0.0085 | 0.0085 | C#CCNC(=O)c1ccc2c(C(=O)c3c(-c4cccc(F)c4)noc3C)cn(-c3ccccc3)c2c1 [Example 49, 3-[3-(3-Fluoro-phenyl)-5-methyl-isoxazole-4-carbonyl]-1-phenyl-1H-indole-6-carboxylic acidprop-2-ynylamide] | 
23 | 0.0138 |  | Cc1onc(-c2cccc(F)c2)c1C(=O)c1cn(-c2ccccc2)c2cc(C(=O)NCC3CC3)ccc12 [Example 48, 3-[3-(3-Fluoro-phenyl)-5-methyl-isoxazole-4-carbonyl]-1-phenyl-1H-indole-6-carboxylic acidcyclopropylmethyl-amide] | 
24 | 0.0447 |  | CC(C)c1onc(-c2cccc(F)c2)c1C(=O)c1c[nH]c2cc(C(=O)NC3CCCC3)ccc12 [Example 40, 3-[3-(3-Fluoro-phenyl)-5-isopropyl-isoxazole-4-carbonyl]-1H-indole-6-carboxylicacidcyclopentylamide] | 
25 | 0.111 |  | Cc1onc(-c2cccc(F)c2)c1C(=O)c1cn(C)c2cc(C(=O)NC3CCCC3)ccc12 [Example 46, 3-[3-(3-Fluoro-phenyl)-5-methyl-isoxazole-4-carbonyl]-1-methyl-1H-indole-6-carboxylic acidcyclopentylamide] | 
26 | 0.0253 |  | Cc1onc(-c2cccc(F)c2)c1C(=O)c1cn(-c2ccccc2)c2cc(C(=O)NCc3ccco3)ccc12 [Example 47, 3-[3-(3-Fluoro-phenyl)-5-methyl-isoxazole-4-carbonyl]-1-phenyl-1H-indole-6-carboxylic acid(furan-2-ylmethyl)-amide] | 
27 | 0.0386 |  | CC(C)c1onc(-c2cccc(F)c2)c1C(=O)c1c[nH]c2cc(C(=O)NC3CCOCC3)ccc12 [Example 39, 3-[3-(3-Fluoro-phenyl)-5-isopropyl-isoxazole-4-carbonyl]-1H-indole-6-carboxylicacid (tetrahydro-pyran-4-yl)-amide] | 
28 | 0.0454 |  | CC(C)c1onc(-c2cccc(F)c2)c1C(=O)c1c[nH]c2cc(C(=O)NCc3ccco3)ccc12 [Example 36, 3-[3-(3-Fluoro-phenyl)-5-isopropyl-isoxazole-4-carbonyl]-1H-indole-6-carboxylicacid (furan-2-ylmethyl)-amide] | 
29 | 0.0953 |  | Cc1onc(-c2cccc(F)c2)c1C(=O)c1c[nH]c2cc(C(=O)NC3CCCC3)ccc12 [Example 33, 3-[3-(3-Fluoro-phenyl)-5-methyl-isoxazole-4-carbonyl]-1H-indole-6-carboxylicacidcyclopentylamide] | 
